In patent publication US11478426B2, “Abuse deterrent immediate release capsule dosage forms” (SpecGX LLC, priority 2018, dated 2022):

System: Slug species
Assay: Slug irritation test (mucus production as model of nasal irritation)
Type: in vivo
Conditions: 15 min exposure, mean ± SEM (n)
Protocol: The organic acid of the capsule contents was tested for potential nasal irritation using a slug irritation model.

Molecule	Mucus Production (% of Body Weight) (dose 3.0 mg)	Mucus Production (% of Body Weight) (dose 5.0 mg)	Mucus Production (% of Body Weight) (dose 10 mg)	Mucus Production (% of Body Weight) (dose 15 mg)	Mucus Production (% of Body Weight) (dose 20 mg)	Mucus Production (% of Body Weight) (dose 0.3 mg)	Mucus Production (% of Body Weight) (dose 1.0 mg)	Mucus Production (% of Body Weight) (dose 1%)
O=C(O)C(O)C(O)C(=O)O (stereo not shown) [Tartaric Acid]	2.8 ± 2.4 (3) % of Body Weight	7.2 ± 0.7 (6) % of Body Weight	10.0 ± 1.3 (3) % of Body Weight	33.6 ± 1.1 (6) % of Body Weight	24.6 ± 2.8 (3) % of Body Weight			
CCCCCCCCCCCCOS(=O)(=O)[O-].[Na+] [Sodium Lauryl Sulfate]	13.4 ± 2.6 (3) % of Body Weight	9.8 ± 2.1 (6) % of Body Weight	16.6 ± 0.9 (3) % of Body Weight	22.7 ± 4.5 (3) % of Body Weight	26.2 ± 3.8 (3) % of Body Weight	5.9 ± 2.0 (6) % of Body Weight	9.5 ± 2.1 (9) % of Body Weight	
Benzalkonium Chloride [Benzalkonium Chloride (BAC)]								24.7 ± 2.1 (3) % of Body Weight
